Source: patent US10435394B2, “Plant growth-promotion agent and method for promoting plant growth” (RIKEN, priority 2014, dated 2019)

What was measured:
Type in all cases: in vivo
[1] = tested on: Arabidopsis seeds (Columbia); test: Plant growth promoting activity test using Arabidopsis, Experimental Method (2); conditions: 15, 30, 60 μM; for growth of aerial leaves: Day 26 of sprouting, FIGS. 15 and 16; for growth of aerial leaves (average leaf area per individual): Day 27 of sprouting, FIGS. 10 and 11; for plant growth promoting effects (state of sprouting): Day 22, FIGS. 6 and 7
Method: (§1) A ½ MS medium (agarose: 0.9%; sucrose: 1.5%; Murashige & Skoog plant culture medium×½ concentration) was prepared and autoclaved. Then, the test compounds were separately added thereto at 0 (DMSO alone), 15, 30, and 60 μM and solidified in a plastic petri dish. Arabidopsis seeds (Columbia) were sterilized with ethanol and sown to sprout, followed by observation of conditions of leaves and roots after sprouting. DMSO alone was added as a solvent for a control.

[2] = tested on: Arabidopsis seeds (Columbia); test: Plant growth promoting activity test using Arabidopsis, Experimental Method (1); conditions: for plant growth promoting effects (state of sprouting): 60 μM in 1/2 MS medium, Day 23, FIG. 1
Method: as §1, with “at” for “at 0 (DMSO alone), 15, 30, and”, “leaves, roots,” for “leaves”, “stems” for “roots”

Tomato seeds (Micro-Tom) = test: Plant growth promoting effects on tomato; conditions: 5, 15, 30 μM in 1/2 MS medium; Day 73 of sprouting; FIG. 17
Method: A ½ MS medium (agarose: 0.9%; sucrose: 1.5%; Murashige & Skoog plant culture medium×½ concentration) was prepared and autoclaved. Then, the compound 1 (PPZ) was added thereto at 0 (DMSO alone), 5, 15, and 30 μM and solidified in a plastic pot. Tomato seeds (Micro-Tom) were sterilized with hypochlorous acid and sown to sprout, followed by observation of conditions of leaves and stems after sprouting. DMSO alone was added as a solvent for a control.

rice (Nipponbare) = test: Plant growth promoting effects upon rice; conditions: 15 or 30 μM in water absorbed from the bottom of the pot from Day 7; Day 21 of sprouting; FIG. 18
Method: A plant pot containing rice culture soil was prepared and rice (Nipponbare) was sown therein. Rice was raised with distilled water until Day 7 of sprouting. Rice was allowed to absorb distilled water containing the compound 1 (PPZ) at a concentration of 0 (DMSO alone), 15, or 30 μM from the bottom of the pot from Day 7 of sprouting. Water used was discarded every 7 days and replaced by fresh water. Rice was photographed and the plant length of rice was measured on Day 21 of sprouting or Day of 14 from the start of treatment.

[3] = tested on: Arabidopsis seeds (Columbia); test: Plant growth promoting activity test using Arabidopsis, Experimental Method (1); conditions: 5, 15, 30, 45, 60 μM

`c1cc2c(cc1CN1CCOCC1)OCO2` [Compound 4] was tested, and the “growth of aerial leaves” value [1] was “activity of promoting the growth of aerial leaves at the late growth stage”.

In the case of `c1cn(Cc2ccc3c(c2)OCO3)nn1` [Compound 7], the “plant growth promoting effects (state of sprouting)” value (shortened to “plant growth promoting effects”) [2] is reported as “decreased plant growth promoting activity and/or growth inhibition”.

`c1cc2c(cc1CCN1CCOCC1)OCO2` [Compound 16] was tested, and the “growth of aerial leaves” value [1] was “activity of promoting the growth of aerial leaves at the late growth stage” and the “growth of aerial leaves (average leaf area per individual)” value [1] was “activity of promoting growth of aerial leaves at the late growth stage”.

With `COc1ccc(N2CCOCC2)cc1OC` [Compound 15] the “plant growth promoting effects” value [1] was “weak plant growth promoting effects”.

In the case of `O=S1(=O)CCN(Cc2ccc3c(c2)OCO3)CC1` [Compound 21], the “growth of aerial leaves” value [1] is reported as “activity of promoting the growth of aerial leaves at the late growth stage”.

For `c1ncn(Cc2ccc3c(c2)OCO3)n1` [Compound 6], the “plant growth promoting effects” value [2] was “decreased plant growth promoting activity and/or growth inhibition”.

With `COc1cc(CN2CCOCC2)cc(OC)c1OC` [Compound 13] the “plant growth promoting effects” value [1] was “weak plant growth promoting effects”.

`c1cc2c(cc1CN1CCSCC1)OCO2` [Compound 12] was tested, and the “elongation of stems and roots” value ([2]; not shown in figures) was “excellent plant growth promoting effects for elongation of stems and roots”.

`c1cc2c(cc1CN1CCN(Cc3ccc4c(c3)OCO4)CC1)OCO2` [Compound 2, 1,4-dipiperonylpiperazine] was tested, and the “plant growth promoting effects” value [2] was “decreased plant growth promoting activity and/or growth inhibition”.

With `CN1CCN(Cc2ccc3c(c2)OCO3)CC1` [Compound 11] the “elongation of stems and roots” value ([2]; not shown in figures) was “excellent plant growth promoting effects for elongation of stems and roots”.

`c1cc2c(cc1CN1CCNCC1)OCO2` [Compound 1, 1-piperonylpiperazine] was tested, and the “growth of aerial leaves” value [1] was “activity of promoting the growth of aerial leaves at the late growth stage”, the “growth of aerial leaves (average leaf area per individual)” value [1] was “activity of promoting growth of aerial leaves at the late growth stage” and the “growth of aerial leaves and stems of tomato” value (Tomato seeds (Micro-Tom)) was “activity of promoting the growth of aerial leaves and stems of tomato”. For the same compound, the “growth of aerial leaves and stems of rice (plant length)” value (rice (Nipponbare)) was “activity of promoting the growth of aerial leaves and stems of rice”, the “development/growth of lateral roots” value ([3]; Day 13 of sprouting, constant light irradiation, FIG. 2) was “activity of promoting development/growth of lateral roots in the early growth stage” and the “growth of aerial leaves and petioles” value ([3]; Day 21 of sprouting, FIG. 3) was “activity of promoting growth of aerial leaves and petioles in the late growth stage”. The branching ([3]; Day 35 of sprouting, FIG. 4) was “activity of promoting branching” and the salt tolerance ([3]; sodium chloride 125 mM, Day 21 of sprouting, FIG. 5) was “action of enhancing salt tolerance”.

`COc1ccc(CN2CCOCC2)cc1OC` [Compound 10] was tested, and the “elongation of the main root” value ([2]; not shown in figures) was “excellent plant growth promoting effects for elongation of the main root”.

In the case of `COCCN(C)Cc1ccc2c(c1)OCO2` [Compound 22], the “growth of aerial leaves” value [1] is reported as “activity of promoting the growth of aerial leaves at the late growth stage”.
